The values that follow come from patent publication US20120022113A1, “METHODS FOR S[…] T[…] ACCUMULATION AND PREVENTING HYPERCYTOKINEMIA” (priority 2009, published 2012).

Assay [1] has as its system H1N1 A/Puerto Rico/8/34 (PR8) influenza A virus. The arrangement: species or system B6 mice. The note with it: mouse, in vivo.
Assay [2] has as its system influenza virus in madin-darby canine kidney (MDCK) cells. The assay can be described thus: Virus replication in MDCK cells. Particulars: up to 1 μg/ml, compared to PBS.

Compound `CCc1ccc(CCOc2ccc(CC3SC(=O)NC3=O)cc2)nc1` (centres unmarked) [pioglitazone] gave a mortality in assay [1] of 50%. Also, the “inhibition of virus replication in MDCK cells” value in assay [2] was “did not inhibit”.
